# In patent US7585875B2, “Substituted pyrazolo[1,5-a]pyridine compounds and their methods of use” (Avigen, Inc., priority 2006, dated 2009):
# Like-named read-outs stand apart in the source and are kept apart here.
# What was measured:
# [1] = test system: mechanical allodynia after chronic constriction injury (CCI) to the sciatic nerve; experiment: Mechanical allodynia by response to von Frey fibers, rat chronic constriction injury (CCI) model; assay type: in vivo, male Sprague-Dawley rats; settings: 2 hr post dosing
# Excerpt: Chronic Constriction Injury: Heat and cold allodynia responses as well as mechanical allodynia sensations can be evaluated as described below in rats having a chronic constriction injury (CCI). A unilateral mononeuropathy is produced in rats using the chronic constriction injury model described in Bennett et al., Pain (1988) 33:87-107. CCI is produced in anesthetized rats as follows. The lateral aspect of each rat's hind limb is shaved and scrubbed with Nolvasan. Using aseptic techniques, an incision is made on the lateral aspect of the hind limb at the mid-thigh level. The biceps femoris is bluntly dissected to expose the sciatic nerve. On the right hind limb of each rat, four loosely tied ligatures (for example, Chromic gut 4.0; Ethicon, Johnson and Johnson, Somerville, N.J.) are made around the sciatic nerve approximately 1-2 mm apart. On the left side of each rat, an identical dissection is performed except that the sciatic nerve is not ligated (sham). The muscle is closed with a continuous suture pattern with, e.g., 4-0 Vicryl (Johnson and Johnson, Somerville, N.J.) and the overlying skin is closed with wound clips. The rats are ear-tagged for identification purposes and returned to animal housing.
# To induce allodynia, male Sprague-Dawley rats underwent chronic constriction injury (CCI) to the sciatic nerve as described by Bennett and Xie, Pain 1988; 33(1):87-107. The plantar surface of the hind paws was stimulated with von Frey filaments (Stoelting) to induce a withdrawal response by blinded personnel. The bending force of fiber required to induce a 50% withdrawal response was calculated following CCI surgery (pre-dosing baseline). N=5-6 allodynic rats received a single intraperitoneal administration of test compound or vehicle. Two hours post-dosing, 50% paw withdrawal threshold was determined again by blinded testers using von Frey filaments. The change in 50% withdrawal threshold relative to pre-dosing baseline is reported in Table 2 for various substituted pyrazolo[1,5-a]pyridine compounds of the invention.
# [2] = biological target: phosphodiesterase (PDE) enzyme derived from bovine brain; experiment: Inhibition of PDE (PDELight kit, cAMP substrate); assay type: biochemical; settings: PDE from brain extract, cAMP as substrate
# Method: In a 96-well plate, phosphodiesterase (PDE) enzyme (0.5-1 mU/well) derived from bovine brain (Sigma) was combined with 5 uM cAMP substrate (Sigma). Test compounds (0-200 uM) or vehicle (0.5% DMSO) were added to the enzyme/substrate and incubated for 1 hour. Using a PDELight® kit (Cambrex), the amount of AMP produced in the reaction from the hydrolysis of cAMP was quantified using PDELight AMP Detection Reagent which converts the AMP directly to ATP. The assay uses luciferase, which catalyses the formation of light from the newly formed ATP and luciferin. The luminescence was read on a Victor Light 1420 luminometer. IC50 calculations were plotted using a nonlinear regression curve fit.
# [3] = test system: IL-1β production in LPS-stimulated human peripheral blood mononuclear cells; experiment: Inhibition of LPS-stimulated IL-1β release from PBMCs; assay type: cell-based; settings: PBMC, LPS-stimulated cytokine release from PBMCs
# Method: (§1) IC50 values were determined for representative compounds of the invention based upon their ability to inhibit LPS-induced cytokine production in human peripheral blood mononuclear cells. Human PBMCs (peripheral blood mononuclear cells) were isolated over a Ficoll gradient from buffy coats obtained from the local Red Cross. 10^6 PBMC cells/well were seeded in 24-well tissue culture plates in RPMI 1640 medium supplemented with 10% human serum, hepes buffer and sodium pyruvate. The cells were treated with 0.1% DMSO (vehicle) or test compounds (1, 10, and 100 uM) 30 minutes prior to activation with LPS (lipopolysaccharide) (E. Coli) at 10 ng/mL. 6-10 hours post LPS stimulation the culture supernatants were collected and levels of cytokines TNF-α and IL-1β were quantified by ELISA (R&D Systems) and/or Luminex (Linco Diagnostics). IC50 calculations were plotted using a nonlinear regression curve fit for exemplary substituted pyrazolo[1,5-a]pyridine compounds of the invention; results are provided in Table 2.
# [4] = test system: TNF-α production in LPS-stimulated human peripheral blood mononuclear cells; experiment: Inhibition of LPS-stimulated TNF-α release from PBMCs; assay type: cell-based; settings: PBMC
# Method: as §1
# [5] = LPS-stimulated cytokine release from PBMCs, read-out: TNF-α (IC50)
# [6] = less than or equal to about 50 μM, PBMCs, read-out: IC50, LPS-induced cytokine production (cytokine not specified)
compound,measurement,setting,value
"CC(CN)C(=O)c1c(C(C)C)nn2ccccc12.Cl (stereo not drawn) [compound 1065, 3-amino-1-(2-isopropylpyrazolo[1,5-a]pyridin-3-yl)-2-methylpropan-1-one hydrochloride]",melting point,,110 to 115 °C
same,Mechanical Allodynia ΔWT (change from pre-dosing 50% withdrawal threshold),[1]; 10 mg/kg IP,0.91 grams
"O=C(c1c(C2CC2)nn2ccccc12)C1CC1 [Compound 1047, cyclopropyl(2-cyclopropylpyrazolo[1,5-a]pyridin-3-yl)methanone]",IC50,[2],15.4 µM
same,melting point,,102 to 104 °C
same,Mechanical Allodynia ΔWT (change from pre-dosing 50% withdrawal threshold),[1]; 10 mg/kg IP,0.68 grams
"CC(C)C(=NO)c1c(-c2ccccc2)nn2ccccc12 [Compound 1016, 2-methyl-1-(2-phenylpyrazolo[1,5-a]pyridin-3-yl)propan-1-one oxime]",IC50,[3],> 100 µM
same,IC50,[2],75 µM
same,IC50,[4]; [5],> 100 µM
same,Mechanical Allodynia ΔWT (change from pre-dosing 50% withdrawal threshold),[1]; 10 mg/kg IP,0 grams
"CC(CNCc1ccccc1)C(=O)c1c(C(C)C)nn2ccccc12.Cl (stereo not drawn) [compound 1066, 3-(benzylamino)-1-(2-isopropylpyrazolo[1,5-a]pyridin-3-yl)-2-methylpropan-1-one hydrochloride]",melting point,,171 to 175 °C
same,Mechanical Allodynia ΔWT (change from pre-dosing 50% withdrawal threshold),[1]; 10 mg/kg IP,0.1 grams
"CC(C)C(=NO)c1c(C(C)C)nn2ccccc12 [Compound 1012, 1-(2-isopropylpyrazolo[1,5-a]pyridin-3-yl)-2-methylpropan-1-one oxime]",IC50,[3],99 µM
same,IC50,[2],40 µM
same,IC50,[4]; [5],> 100 µM
same,Mechanical Allodynia ΔWT (change from pre-dosing 50% withdrawal threshold),[1]; 10 mg/kg IP,1.56 grams
"CC(N)C(=O)c1c(C(C)C)nn2ccccc12 (stereo not drawn) [compound 1013, 2-amino-1-(2-isopropylpyrazolo[1,5-a]pyridin-3-yl)propan-1-one]",IC50,[3],> 100 µM
same,IC50,[2],> 200 µM
same,IC50,[4]; [5],13.6 µM
same,IC50,[4]; [6],≤ 50 µM
same,Mechanical Allodynia ΔWT (change from pre-dosing 50% withdrawal threshold),[1]; 10 mg/kg IP,10 mg/kg: 1.04 grams
same,Mechanical Allodynia ΔWT (change from pre-dosing 50% withdrawal threshold),[1]; 20 mg/kg IP,20 mg/kg: 1.33 grams
same,Mechanical Allodynia ΔWT (change from pre-dosing 50% withdrawal threshold),[1]; 25 mg/kg PO,25 mg/kg PO: 1.39 grams
same,Mechanical Allodynia ΔWT (change from pre-dosing 50% withdrawal threshold),[1]; 40 mg/kg IP,40 mg/kg: 3.16 grams
"CC(CN1CCCCC1)C(=O)c1c(C(C)C)nn2ccccc12.Cl (stereo not drawn) [compound 1063, 1-(2-isopropylpyrazolo[1,5-a]pyridin-3-yl)-2-methyl-3-(piperidin-1-yl)propan-1-one hydrochloride]",melting point,,166 to 167 °C
same,Mechanical Allodynia ΔWT (change from pre-dosing 50% withdrawal threshold),[1]; 10 mg/kg IP,0 grams
"CC(C)C(=O)c1c(C(C)C)nn2ccccc12 [compound 411, 3-isobutyryl-2-isopropylpyrazolo[1,5-a]pyridine, reference compound]",IC50,[3],17.9 µM
same,IC50,[2],10.3 µM
same,IC50,[4]; [5],5 µM
same,Mechanical Allodynia ΔWT (change from pre-dosing 50% withdrawal threshold),[1]; 10 mg/kg IP,2.31-3.53 grams
"CC(C)c1nn2ccccc2c1C(O)C(C)C (stereo not drawn) [Compound 1002, 1-(2-isopropylpyrazolo[1,5-a]pyridin-3-yl)-2-methylpropan-1-ol]",IC50,[3],> 100 µM
same,IC50,[2],> 200 µM
same,IC50,[4]; [5],> 100 µM
same,melting point,,69 °C
same,Mechanical Allodynia ΔWT (change from pre-dosing 50% withdrawal threshold),[1]; 10 mg/kg IP,0.79 grams
"CC(C)C(=O)c1c(-c2ccc(F)cc2)nn2ccccc12 [Compound 1018, 1-(2-(4-fluorophenyl)pyrazolo[1,5-a]pyridin-3-yl)-2-methylpropan-1-one]",IC50,[3],> 100 µM
same,IC50,[2],> 200 µM
same,IC50,[4]; [5],32.7 µM
same,IC50,[4]; [6],≤ 50 µM
same,Mechanical Allodynia ΔWT (change from pre-dosing 50% withdrawal threshold),[1]; 10 mg/kg IP,0 grams
"CC(C)C(=O)c1c(C(C)C)nn2cc(O)ccc12 [compound 1006, 1-(6-hydroxy-2-isopropylpyrazolo[1,5-a]pyridin-3-yl)-2-methylpropan-1-one]",IC50,[3],14.7 µM
same,IC50,[2],29.6 µM
same,IC50,[4]; [5],1.3 µM
same,IC50,[4]; [6],≤ 50 µM
same,Mechanical Allodynia ΔWT (change from pre-dosing 50% withdrawal threshold),[1]; 10 mg/kg IP,0 grams
"CC(C)C(=O)c1c(C2CC2)nn2ccccc12 [compound 1050, 1-(2-cyclopropylpyrazolo[1,5-a]pyridin-3-yl)-2-methylpropan-1-one]",melting point,,108 to 109 °C
same,Mechanical Allodynia ΔWT (change from pre-dosing 50% withdrawal threshold),[1]; 10 mg/kg IP,0 grams
"CC(C)C(=O)c1c(-c2ccc(F)cc2)nn2cc(C(F)(F)F)ccc12 [Compound 1027, 1-(2-(4-fluorophenyl)-6-(trifluoromethyl)pyrazolo[1,5-a]pyridin-3-yl)-2-methylpropan-1-one]",IC50,[2],> 200 µM
same,melting point,,129 to 130 °C
same,Mechanical Allodynia ΔWT (change from pre-dosing 50% withdrawal threshold),[1]; 10 mg/kg IP,0 grams
"CC(C)c1nn2ccccc2c1C(=O)c1ccc(Cl)cc1 [Compound 1007, (4-chlorophenyl)(2-isopropylpyrazolo[1,5-a]pyridin-3-yl)methanone]",IC50,[3],29.7 µM
same,IC50,[2],> 200 µM
same,IC50,[4]; [5],13 µM
same,IC50,[4]; [6],≤ 50 µM
same,Mechanical Allodynia ΔWT (change from pre-dosing 50% withdrawal threshold),[1]; 10 mg/kg IP,0.92 grams
"CC(C)c1nn2ccccc2c1C(=O)CN [Compound 1009, 2-amino-1-(2-isopropylpyrazolo[1,5-a]pyridin-3-yl)ethanone]",IC50,[3],99 µM
same,IC50,[2],> 200 µM
same,IC50,[4]; [5],25 µM
same,IC50,[4]; [6],≤ 50 µM
same,Mechanical Allodynia ΔWT (change from pre-dosing 50% withdrawal threshold),[1]; 10 mg/kg IP,1.15 grams
"CC(C)C(=NO)c1c(-c2ccc(F)cc2)nn2ccccc12 [compound 1019, 1-(2-(4-fluorophenyl)pyrazolo[1,5-a]pyridin-3-yl)-2-methylpropan-1-one oxime]",IC50,[3],> 100 µM
same,IC50,[2],40 µM
same,IC50,[4]; [5],> 100 µM
same,Mechanical Allodynia ΔWT (change from pre-dosing 50% withdrawal threshold),[1]; 10 mg/kg IP,1.4 grams
"CC(C)C(=NOC(N)=O)c1c(C(C)C)nn2ccccc12 [compound 1014, 1-(2-isopropylpyrazolo[1,5-a]pyridin-3-yl)-2-methylpropan-1-one O-carbamoyl oxime]",IC50,[3],1 µM
same,IC50,[2],100 µM
same,IC50,[4]; [5],1.3 µM
same,IC50,[4]; [6],≤ 50 µM
same,Mechanical Allodynia ΔWT (change from pre-dosing 50% withdrawal threshold),[1]; 10 mg/kg IP,10 mg/kg: 2.18 grams
same,Mechanical Allodynia ΔWT (change from pre-dosing 50% withdrawal threshold),[1]; 20 mg/kg IP,20 mg/kg: 3.73 grams
"CC(C)c1nn2ccccc2c1C(=O)C1CC1 [Compound 1046, cyclopropyl(2-isopropylpyrazolo[1,5-a]pyridin-3-yl)methanone]",IC50,[2],33.3 µM
same,melting point,,72 °C
same,Mechanical Allodynia ΔWT (change from pre-dosing 50% withdrawal threshold),[1]; 10 mg/kg IP,0 grams
"CCC(=O)c1c(C(C)C)nn2ccccc12 [Compound 1001, 1-(2-isopropylpyrazolo[1,5-a]pyridin-3-yl)propan-1-one]",IC50,[3],> 100 µM
same,IC50,[2],58 µM
same,IC50,[4]; [5],13 µM
same,IC50,[4]; [6],≤ 50 µM
same,melting point,,41 to 43 °C
same,Mechanical Allodynia ΔWT (change from pre-dosing 50% withdrawal threshold),[1]; 10 mg/kg IP,0 grams
